{"source": "paper PMC2798597", "about": "(Biochemical pharmacology, 2009)", "key": {"MCF-7": {"tested_on": "MCF-7", "experiment": "MTT cytotoxicity / MDR reversal", "assay_type": "cell-based, human", "conditions": "for fold-reversal: no FG020326 (reference)"}, "MCF-7/adr (ABCB1)": {"tested_on": "MCF-7/adr (ABCB1)", "experiment": "MTT cytotoxicity / MDR reversal", "assay_type": "cell-based, human", "conditions": "for IC50: Homo sapiens, NCI/ADR-RES, read-out: IC50 ± SD; for fold-reversal: MCF-7/adr cells, drug alone, no FG020326 (reference)"}, "KB": {"tested_on": "KB", "experiment": "MTT cytotoxicity / MDR reversal", "assay_type": "cell-based, human", "conditions": "for IC50: Homo sapiens, KB, read-out: IC50 ± SD; for fold-reversal: KB cells, drug alone, no FG020326 (reference)"}, "KBv200 (ABCB1)": {"tested_on": "KBv200 (ABCB1)", "experiment": "MTT cytotoxicity / MDR reversal", "assay_type": "cell-based, human", "conditions": "for IC50: Homo sapiens, KBv200, read-out: IC50 ± SD; for fold-reversal: KBv200 cells, drug alone, no FG020326 (reference)"}, "SW1573": {"tested_on": "SW1573", "experiment": "MTT cytotoxicity / MDR reversal", "assay_type": "cell-based, human"}, "SW1573/2R120 (LRP)": {"tested_on": "SW1573/2R120 (LRP)", "experiment": "MTT cytotoxicity / MDR reversal", "assay_type": "cell-based, human"}, "KBv200 cell xenografts": {"tested_on": "KBv200 cell xenografts", "experiment": "MDR human carcinoma xenograft model", "assay_type": "in vivo, athymic nude mice"}, "[1]": {"experiment": "Paclitaxel plasma levels / pharmacokinetics in mice", "assay_type": "in vivo, NIH mice", "conditions": "for AUC(0-t): AUC0→ 12, paclitaxel 18 mg/kg i.v."}, "S1": {"tested_on": "S1", "experiment": "MTT cytotoxicity / MDR reversal", "assay_type": "cell-based"}, "S1-M1-80 (ABCG2)": {"tested_on": "S1-M1-80 (ABCG2)", "experiment": "MTT cytotoxicity / MDR reversal", "assay_type": "cell-based"}, "KB-3-1": {"tested_on": "KB-3-1", "experiment": "MTT cytotoxicity / MDR reversal", "assay_type": "cell-based, human"}, "KB-CV60 (ABCC1)": {"tested_on": "KB-CV60 (ABCC1)", "experiment": "MTT cytotoxicity / MDR reversal", "assay_type": "cell-based, human"}, "NIH3T3": {"tested_on": "NIH3T3", "experiment": "MTT cytotoxicity / MDR reversal", "assay_type": "cell-based, murine"}, "NIH3T3/MRP-4-2 (ABCC4)": {"tested_on": "NIH3T3/MRP-4-2 (ABCC4)", "experiment": "MTT cytotoxicity / MDR reversal", "assay_type": "cell-based, murine"}, "[2]": {"conditions": "Homo sapiens, MCF7, read-out: IC50 ± SD"}, "[3]": {"conditions": "Homo sapiens, SW1573, read-out: IC50 ± SD"}, "[4]": {"conditions": "paclitaxel experiment, paclitaxel 18 mg/kg i.p. q5d×3, FG020326 100 mg/kg p.o."}, "[5]": {"conditions": "Mus musculus, NIH3T3, read-out: IC50 ± SD"}, "[6]": {"conditions": "VCR experiment, VCR 0.2 mg/kg i.p. q2d×6, FG020326 100 mg/kg p.o. q2d×6"}}, "note": "Read-outs that look alike come from different tables or passages of the source.", "data": [{"molecule": "N.N.[Cl][Pt][Cl]", "note": "[Cisplatin, cisplatin, reference compound]", "values": [{"measurement": "IC50", "setting": "MCF-7; read-out: IC50 ± SD, MCF-7 cells, drug alone, no FG020326", "result": "3550 ± 213", "unit": "nM"}]}, {"molecule": "COc1cccc2c1C(=O)c1c(O)c3c(c(O)c1C2=O)C[C@@](O)(C(=O)CO)C[C@@H]3O[C@H]1C[C@H](N)[C@H](O)[C@H](C)O1", "note": "[Doxorubicin, doxorubicin, reference compound]", "values": [{"measurement": "IC50", "setting": "MCF-7; [2]", "result": "81 ± 10", "unit": "nM"}, {"measurement": "fold-reversal", "setting": "MCF-7; MCF-7 cells, drug alone", "result": "(1.0) fold"}, {"measurement": "IC50", "setting": "MCF-7/adr (ABCB1)", "result": "14300 ± 1420", "unit": "nM"}, {"measurement": "fold-reversal", "setting": "MCF-7/adr (ABCB1)", "result": "(1.0) fold"}, {"measurement": "IC50", "setting": "KB", "result": "20 ± 10", "unit": "nM"}, {"measurement": "fold-reversal", "setting": "KB", "result": "(1.0) fold"}, {"measurement": "IC50", "setting": "KBv200 (ABCB1)", "result": "979 ± 123", "unit": "nM"}, {"measurement": "fold-reversal", "setting": "KBv200 (ABCB1)", "result": "(1.0) fold"}, {"measurement": "IC50", "setting": "SW1573; [3]", "result": "116 ± 24", "unit": "nM"}, {"measurement": "fold-reversal", "setting": "SW1573; SW1573 cells, drug alone, no FG020326 (reference)", "result": "(1.0) fold"}, {"measurement": "IC50", "setting": "SW1573/2R120 (LRP); [3]", "result": "1540 ± 279", "unit": "nM"}, {"measurement": "fold-reversal", "setting": "SW1573/2R120 (LRP); SW1573/2R120 cells, drug alone, no FG020326 (reference)", "result": "(1.0) fold"}]}, {"molecule": "CC(=O)O[C@H]1C(=O)[C@@]2(C)[C@H]([C@H](OC(=O)c3ccccc3)[C@]3(O)C[C@H](OC(=O)[C@H](O)[C@@H](NC(=O)c4ccccc4)c4ccccc4)C(C)=C1C3(C)C)[C@]1(OC(C)=O)CO[C@@H]1C[C@@H]2O", "note": "[Paclitaxel]", "values": [{"measurement": "IC50", "setting": "MCF-7; [2]", "result": "6.91 ± 0.903", "unit": "nM"}, {"measurement": "fold-reversal", "setting": "MCF-7; MCF-7 cells, drug alone", "result": "(1.0) fold"}, {"measurement": "IC50", "setting": "MCF-7/adr (ABCB1)", "result": "340 ± 38.7", "unit": "nM"}, {"measurement": "fold-reversal", "setting": "MCF-7/adr (ABCB1)", "result": "(1.0) fold"}, {"measurement": "IC50", "setting": "KB", "result": "1.38 ± 0.148", "unit": "nM"}, {"measurement": "fold-reversal", "setting": "KB", "result": "(1.0) fold"}, {"measurement": "IC50", "setting": "KBv200 (ABCB1)", "result": "48.3 ± 4.12", "unit": "nM"}, {"measurement": "fold-reversal", "setting": "KBv200 (ABCB1)", "result": "(1.0) fold"}, {"measurement": "Growth Inhibition", "setting": "KBv200 cell xenografts; [4]", "result": 8.1, "unit": "%"}, {"measurement": "Post-experiment Weight (body weight)", "setting": "KBv200 cell xenografts; [4]", "result": "24.4 ± 2.6", "unit": "g"}, {"measurement": "Weight of tumor", "setting": "KBv200 cell xenografts; [4]", "result": "2.06 ± 1.06", "unit": "g"}, {"measurement": "AUC(0-t)", "setting": "[1]; both, NIH, mouse, plasma, iv, 18 mg/kg, with FG020326 100 mg/kg p.o.", "result": "69400 ± 2260", "unit": "ng·h/mL"}, {"measurement": "AUC(0-t)", "setting": "[1]; both, NIH, mouse, plasma, iv, 18 mg/kg, without FG020326", "result": "73600 ± 5580", "unit": "ng·h/mL"}, {"measurement": "AUC(0-inf)", "setting": "[1]; both, NIH, mouse, plasma, iv, 18 mg/kg, AUC0→ ∞, paclitaxel 18 mg/kg i.v., without FG020326", "result": "73700 ± 5570", "unit": "ng·h/mL"}, {"measurement": "clearance", "setting": "[1]; both, NIH, mouse, plasma, iv, 18 mg/kg, CL, paclitaxel 18 mg/kg i.v., without FG020326", "result": 0.0888, "unit": "mL/min"}, {"measurement": "MRT", "setting": "[1]; both, NIH, mouse, plasma, iv, 18 mg/kg, MRT, paclitaxel 18 mg/kg i.v., without FG020326", "result": "1.54 ± 0.02", "unit": "h"}, {"measurement": "half-life", "setting": "[1]; both, NIH, mouse, plasma, iv, 18 mg/kg, T1/2β, paclitaxel 18 mg/kg i.v., with FG020326 100 mg/kg p.o.", "result": "1.42 ± 0.08", "unit": "h"}, {"measurement": "Vd", "setting": "[1]; both, NIH, mouse, plasma, iv, 18 mg/kg, Vd, paclitaxel 18 mg/kg i.v., without FG020326", "result": "0.0124 ± 0.0011", "unit": "L"}, {"measurement": "T1/2α", "setting": "[1]; paclitaxel 18 mg/kg i.v., without FG020326", "result": "0.55 ± 0.04", "unit": "h"}]}, {"molecule": "CC[C@@]1(O)C(=O)OCc2c1cc1n(c2=O)Cc2cc3c(CN(C)C)c(O)ccc3nc2-1", "note": "[Topotecan, topotecan]", "values": [{"measurement": "fold-reversal", "setting": "S1; S1 cells, drug alone, no FG020326 (reference)", "result": "(1.0) fold"}, {"measurement": "IC50", "setting": "S1; read-out: IC50 ± SD", "result": "84 ± 24", "unit": "nM"}, {"measurement": "IC50", "setting": "S1-M1-80 (ABCG2); Homo sapiens, S1-M1-80, read-out: IC50 ± SD", "result": "12000 ± 1280", "unit": "nM"}, {"measurement": "fold-reversal", "setting": "S1-M1-80 (ABCG2); S1-M1-80 cells, drug alone, no FG020326 (reference)", "result": "(1.0) fold"}, {"measurement": "fold resistance", "setting": "S1-M1-80 (ABCG2); S1-M1-80 compared with S1 cells", "result": 143.2, "unit": "fold"}]}, {"molecule": "CC[C@]1(O)C[C@H]2CN(CCc3c([nH]c4ccccc34)[C@@](C(=O)OC)(c3cc4c(cc3OC)N(C=O)[C@H]3[C@@](O)(C(=O)OC)[C@H](OC(C)=O)[C@]5(CC)C=CCN6CC[C@]43[C@@H]65)C2)C1", "note": "[Vincristine, vincristine]", "values": [{"measurement": "IC50", "setting": "MCF-7; [2]", "result": "59 ± 9", "unit": "nM"}, {"measurement": "fold-reversal", "setting": "MCF-7; MCF-7 cells, drug alone", "result": "(1.0) fold"}, {"measurement": "IC50", "setting": "MCF-7/adr (ABCB1)", "result": "4020 ± 656", "unit": "nM"}, {"measurement": "fold-reversal", "setting": "MCF-7/adr (ABCB1)", "result": "(1.0) fold"}, {"measurement": "IC50", "setting": "KB", "result": "28 ± 9", "unit": "nM"}, {"measurement": "fold-reversal", "setting": "KB", "result": "(1.0) fold"}, {"measurement": "IC50", "setting": "KBv200 (ABCB1)", "result": "1320 ± 256", "unit": "nM"}, {"measurement": "fold-reversal", "setting": "KBv200 (ABCB1)", "result": "(1.0) fold"}, {"measurement": "IC50", "setting": "KB-3-1; Homo sapiens, KB 3-1, read-out: IC50 ± SD", "result": "7260 ± 724", "unit": "nM"}, {"measurement": "fold-reversal", "setting": "KB-3-1; KB-3-1 cells, drug alone, no FG020326 (reference)", "result": "(1.0) fold"}, {"measurement": "IC50", "setting": "KB-CV60 (ABCC1); Homo sapiens, KB-CV60, read-out: IC50 ± SD", "result": "88600 ± 8280", "unit": "nM"}, {"measurement": "fold-reversal", "setting": "KB-CV60 (ABCC1); KB-CV60 cells, drug alone, no FG020326 (reference)", "result": "(1.0) fold"}, {"measurement": "IC50", "setting": "NIH3T3; [5]", "result": "324 ± 24", "unit": "nM"}, {"measurement": "fold-reversal", "setting": "NIH3T3; NIH3T3 cells, drug alone, no FG020326 (reference)", "result": "(1.0) fold"}, {"measurement": "IC50", "setting": "NIH3T3/MRP-4-2 (ABCC4); [5]", "result": "7250 ± 779", "unit": "nM"}, {"measurement": "fold-reversal", "setting": "NIH3T3/MRP-4-2 (ABCC4); NIH3T3/MRP-4-2 cells, drug alone, no FG020326 (reference)", "result": "(1.0) fold"}, {"measurement": "Post-experiment Weight (body weight)", "setting": "KBv200 cell xenografts; [6]", "result": "25.6 ± 1.9", "unit": "g"}, {"measurement": "Weight of tumor", "setting": "KBv200 cell xenografts; [6]", "result": "2.92 ± 0.94", "unit": "g"}]}]}
